In paper PMC9887116, “SDI-118, a novel procognitive SV2A modulator: First-in-human randomized controlled trial including PET/fMRI assessment of target engagement” (Frontiers in Pharmacology, 2023):
Several values for one entry are separate records, joined by “and”; a condition that tells them apart may be missing. Equal entries are not always repeated.

Columns and labels:
SV2A = target: T1, SV2A (Homo sapiens, UniProt Q7L0J3); experiment: brain SV2A occupancy by [11C]-UCB-J PET and PK/PD Emax model, Part B; type: in vivo, human (healthy male subjects)
T1 construct: from tissue; host or cells: brain of healthy male subjects, in vivo
T1 sequence (Q7L0J3 whole entry): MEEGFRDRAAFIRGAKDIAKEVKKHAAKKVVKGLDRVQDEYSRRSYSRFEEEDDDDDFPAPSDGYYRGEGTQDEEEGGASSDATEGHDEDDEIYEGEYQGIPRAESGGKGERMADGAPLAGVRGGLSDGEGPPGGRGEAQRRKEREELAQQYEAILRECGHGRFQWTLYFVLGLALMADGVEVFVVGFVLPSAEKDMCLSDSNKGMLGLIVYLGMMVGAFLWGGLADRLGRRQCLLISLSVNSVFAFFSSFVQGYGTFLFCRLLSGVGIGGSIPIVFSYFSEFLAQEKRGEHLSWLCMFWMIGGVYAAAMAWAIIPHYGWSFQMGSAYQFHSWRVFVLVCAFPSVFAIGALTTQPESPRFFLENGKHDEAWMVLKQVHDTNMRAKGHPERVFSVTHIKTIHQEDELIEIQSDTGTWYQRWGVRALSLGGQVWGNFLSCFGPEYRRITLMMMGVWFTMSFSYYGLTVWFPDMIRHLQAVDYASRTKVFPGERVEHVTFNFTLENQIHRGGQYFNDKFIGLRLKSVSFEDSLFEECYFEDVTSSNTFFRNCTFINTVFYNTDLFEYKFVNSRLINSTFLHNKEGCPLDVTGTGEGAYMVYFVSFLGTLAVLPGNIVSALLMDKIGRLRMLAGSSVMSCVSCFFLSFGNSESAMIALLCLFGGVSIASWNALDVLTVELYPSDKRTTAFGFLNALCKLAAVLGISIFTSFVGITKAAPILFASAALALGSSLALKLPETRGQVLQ
Experimental: In Part B target occupancy in the brain was measured by PET-scans (GE Signa) with the PET-ligand [^11C]-UCB-J ([Nabulsi et al., 2016]; [Koole et al., 2019]) at three different time points: pre-dose, around Tmax (estimated on data collected in Part A), and approximately 24 h post-dose. [^11C]-UCB-J was administered as an intravenous bolus into the antecubital vein over at least 15 s, followed by saline flush. An arterial line in the radial artery was placed in each subject to collect arterial blood samples to reconstruct a metabolite-corrected arterial plasma input function.
Dynamic PET scans were acquired in 3D list-mode for 90 min. List-mode data were rebinned into […] with a gradually increasing frame duration (6 × 15 s—3 × 30 s—3 × 60 s—2 × 90 s—2 × 3 min—9 × 5 min—3 × 10 min) and corrected for deadtime, randoms, and scatter. To correct for attenuation, a Zero-Echo Time (ZTE) scan was acquired simultaneously with the PET data to generate a subject-specific, MR-based attenuation map. Each frame was reconstructed with an iterative algorithm (OSEM—Ordered Subsets Expectation Maximization, four iterations, 28 subsets), modeling detector response, and using time of flight information (TOF). Each reconstructed frame consisted of 89 slices with a matrix size of 192 × 192, corresponding to an in-plane pixel size of 1.56 mm and a slice separation of 2.78 mm. Finally, smoothing was performed by applying a Gaussian filter (4.5 mm Full Width Half Maximum–FWHM) to each time frame.
SDI-118 SV2A occupancy was estimated globally using a full kinetic one-tissue compartmental modeling approach with an arterial input function (1TCM), and target occupancy was assessed with a Lassen plot using 13 main regions of interest: the overall cortex, the frontal, temporal, parietal and occipital cortex, the insula, the anterior and posterior cingulate cortex, the cerebellum, the striatum, the thalamus, the hippocampus, and the brainstem.
The PK/PD analysis set included all subjects from Part B with at least one available valid combined measurement of PK and PD, who received treatment and experienced no protocol deviations with relevant impact on PK or PD data. The global target occupancy based on the 1TCM method was analyzed as a function of the first PK concentration during the Tmax and 24-h post-dose scans. To estimate the relationship between the observed concentration at the beginning of the PET measurement and the receptor occupancy, a mixed-effect maximal effective concentration (Emax) model with two parameters Emax and half maximal effective concentration (EC50), with a random intercept was used. Parameter estimates, standard errors, and 95% confidence intervals were reported. Predictions from the model were reported with 95% confidence and prediction intervals to inform the required doses to produce these target occupancy values at Tmax and 24-h post-dose.

[1] = target: human recombinant SV2A (hSV2A) (Homo sapiens, UniProt Q7L0J3); experiment: in vitro radioligand binding study using human recombinant SV2A; conditions: read-out: half maximal inhibitory concentration (IC50)
Chain of human recombinant SV2A (hSV2A) (Q7L0J3 whole entry): as above
From the text: ([Löscher et al., 2016]). […] ([Lynch et al., 2004]; [Matagne et al., 2008]).

[2] = 12-lead ECG QT-interval assessment in first-in-human study; type: in vivo, human (healthy male subjects)
Experimental: (§1) Safety and tolerability were assessed by questioning for adverse events (AEs), vital signs measurements (supine and orthostatic), 12-lead ECGs (always acquired in triplicate except during screening and post-study visit), standard lab safety tests on blood and urine samples, and physical and neurological examinations at regular time-points throughout the study.

[3] = first-in-human single oral dose safety and tolerability (adverse events)
Experimental: The study consisted of three parts. Part A was a double-blind, placebo-controlled (in a 6:2 SDI-118:placebo ratio), single ascending oral dose study performed in 16 subjects equally divided into two cohorts. […] Dose levels of .3, 1, 3, 10, 30, 60, 90 and 120 mg of SDI-118 were set to be administered in an alternating panel design with a minimum washout period of 7 days between subsequent periods. In each period two different sentinel subjects were dosed (in a 1:1 SDI-118:placebo ratio) and followed-up for safety for at least 48 h before the rest of the cohort received the same dose level of the study drug.
as §1

[4] = Emax model excluding 22-h post-dose data of the 1 mg group
[5] = all subjects (n = 32), all single doses pooled
[6] = all subjects (n = 32), only at 80 mg

With `O=C1C[C@H](c2cc(F)c(F)c(F)c2)CN1Cn1ncnc1Cl` [SDI-118] the “mean SV2A occupancy” value (SV2A; 1 mg oral, approximately 24 h after administration) was about 0%, the “mean SV2A occupancy” value (SV2A; 1 mg oral, around Tmax (2 h post-dose), 1TC global method) was 23% and the “mean SV2A occupancy” value (SV2A; 2 mg oral, approximately 24 h after administration) was 20%. For the same compound, the “mean SV2A occupancy” value (SV2A; 2 mg oral, around Tmax, 1TC global method) was 41%, the “predicted mean SV2A occupancy at trough level at steady state” value (SV2A; 10 mg once a day, model prediction) was 76% and the “mean SV2A occupancy” value (SV2A; 10 mg oral, approximately 24 h after administration) was 48%. The “mean SV2A occupancy” value (SV2A; 10 mg oral, around Tmax, 1TC global method) was 69% and ~70%, the “mean SV2A occupancy” value (SV2A; 20 mg oral, approximately 24 h after administration) was 61% and the “mean SV2A occupancy” value (SV2A; 20 mg oral, around Tmax, 1TC global method (peak occupancy)) was 76%. The mean plasma concentration (SV2A; 20 mg oral, around Tmax, Part B) was 159 ± 20.5 ng/mL, the “occupancy as share of predicted maximum” value (SV2A; 80 mg dose, predicted) was 96% and the “EC50 of SV2A occupancy (plasma concentration)” value (SV2A; [4]) was 28.2 ng/mL. The “Emax of SV2A occupancy” value (SV2A; [4]) was 90.3%, the “plasma level predicted to render ~90% of maximal occupancy” value (SV2A; Figure 3) was about 200 ng/mL and the “EC50 of plasma concentration-occupancy relationship (Figure 3)” value (SV2A; Tmax and 24 h post-dose, excluding 24 h data of 1 mg) was “around 25 ng/ml”. For the same compound, the “EC90 of SV2A occupancy (concentration where 90% of the maximum effect is reached)” value (SV2A; mixed-effect Emax model) was 245 ng/mL, the “EC50 of SV2A occupancy (plasma concentration)” value (SV2A; mixed-effect Emax model, all data, 95% CI 18.4 to 36.3 ng/ml) was 27.3 ng/mL and the “Emax of SV2A occupancy” value (SV2A; mixed-effect Emax model, all data, 95% CI 80.1%-98.4%) was 89.2%. The “occupancy levels at which mild and transient side effects were seen in some individuals” value (SV2A; possible target related effect) was over 60%, the IC50 [1] was 13 nM and the “largest observed mean increase from baseline QTcF” value ([2]; 12 h post-dose at 60 mg) was “+6.1 ms”. For the same compound, the single QT-interval value, any subject ([2]; no subject above this value) was at most 500 ms, the single corrected QT-interval Fridericia (QTcF) value, any subject ([2]; no subject above this value) was at most 450 ms and the QT-interval prolongation ([2]; single oral doses 0.3-80 mg) was “no QT-interval prolongations were observed”. The “dizziness, drug related TEAE, number of events” value [3, 5] was 12 events, the “dizziness, drug related TEAE, number of subjects” value [3, 5] was “nine” and the “hypersomnia, drug related TEAE, number of events” value [3, 5] was 6 events. For the same compound, the “hypersomnia, drug related TEAE, number of subjects” value [3, 5] was “five”, the “somnolence, drug related TEAE, number of events” value [3, 6] was 2 events and the “somnolence, drug related TEAE, number of subjects” value [3, 6] was “two”. The “All drug related TEAEs: N (%) (number of subjects)” value (from here on “All drug related TEAEs: N (%)”) ([3]; single oral dose 1 mg (N=8)) was 1 (12.5) N (%), the “All drug related TEAEs: No. (number of observations)” value ([3]; single oral dose 1 mg (N=8)) was 1 and the “Headache, drug related TEAE: N (%) (number of subjects)” value ([3]; single oral dose 1 mg (N=8)) was 1 (12.5) N (%). The “Headache, drug related TEAE: No. (number of observations)” value ([3]; single oral dose 1 mg (N=8)) was 1, the “Nervous System Disorders, drug related TEAEs: N (%) (number of subjects)” value ([3]; single oral dose 1 mg (N=8)) was 1 (12.5) N (%) and the “Nervous System Disorders, drug related TEAEs: No. (number of observations)” value ([3]; single oral dose 1 mg (N=8)) was 1. For the same compound, the “All drug related TEAEs: N (%)” value ([3]; single oral dose 3 mg (N=6)) was 1 (16.7) N (%), the “All drug related TEAEs: No. (number of observations)” value ([3]; single oral dose 3 mg (N=6)) was 1 and the “Cardiac Disorders, drug related TEAEs: N (%) (number of subjects)” value ([3]; single oral dose 3 mg (N=6)) was 1 (16.7) N (%). The “Cardiac Disorders, drug related TEAEs: No. (number of observations)” value ([3]; single oral dose 3 mg (N=6)) was 1, the “Postural Dizziness, drug related TEAE: N (%) (number of subjects)” value ([3]; single oral dose 3 mg (N=6)) was 1 (16.7) N (%) and the “Postural Dizziness, drug related TEAE: No. (number of observations)” value ([3]; single oral dose 3 mg (N=6)) was 1. The “All drug related TEAEs: N (%)” value ([3]; single oral dose 10 mg (N=16)) was 4 (66.7) N (%), the “All drug related TEAEs: No. (number of observations)” value ([3]; single oral dose 10 mg (N=16)) was 5 and the “Blurred vision, drug related TEAE: N (%) (number of subjects)” value ([3]; single oral dose 10 mg (N=16)) was 1 (16.7) N (%). The “Blurred vision, drug related TEAE: No. (number of observations)” value ([3]; single oral dose 10 mg (N=16)) was 1, the “Dizziness, drug related TEAE: N (%) (number of subjects)” value ([3]; single oral dose 10 mg (N=16)) was 1 (16.7) N (%) and the “Dizziness, drug related TEAE: No. (number of observations)” value ([3]; single oral dose 10 mg (N=16)) was 1. The “Eye Disorders, drug related TEAEs: N (%) (number of subjects)” value ([3]; single oral dose 10 mg (N=16)) was 1 (16.7) N (%), the “Eye Disorders, drug related TEAEs: No. (number of observations)” value ([3]; single oral dose 10 mg (N=16)) was 1 and the “Fatigue, drug related TEAE: N (%) (number of subjects)” value ([3]; single oral dose 10 mg (N=16)) was 1 (16.7) N (%). For the same compound, the “Fatigue, drug related TEAE: No. (number of observations)” value ([3]; single oral dose 10 mg (N=16)) was 1.
